The record followed here is US11274079B2 (DALIAN INSTITUTE OF CHEMICAL PHYSICS, CHINESE ACADEMY OF …, priority 2018, dated 2022).

Counter-ions that a name gives are not always drawn.

Assay [1] addresses T1, M1 receptor (Homo sapiens, UniProt P11229).
T1 construct: expressed in transfected cells; host or cells: CHO-K1
T1 sequence (P11229 1-460): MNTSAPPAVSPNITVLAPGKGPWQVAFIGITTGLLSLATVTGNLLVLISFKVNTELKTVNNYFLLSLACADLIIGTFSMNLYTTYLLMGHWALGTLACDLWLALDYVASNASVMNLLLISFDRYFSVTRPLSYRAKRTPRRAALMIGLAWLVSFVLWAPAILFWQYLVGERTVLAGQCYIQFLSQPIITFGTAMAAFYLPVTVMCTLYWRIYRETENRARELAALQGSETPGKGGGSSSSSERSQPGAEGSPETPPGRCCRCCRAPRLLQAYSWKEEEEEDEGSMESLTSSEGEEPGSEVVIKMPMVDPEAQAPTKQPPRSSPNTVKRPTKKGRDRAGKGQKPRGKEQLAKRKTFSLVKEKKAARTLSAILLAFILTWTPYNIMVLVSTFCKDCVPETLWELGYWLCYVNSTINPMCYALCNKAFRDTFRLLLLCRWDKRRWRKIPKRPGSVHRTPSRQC
As to the kind of experiment: DMR assay, antagonism of acetylcholine in CHO-K1 cells stably transfecting the M1 receptor. Format: cell-based. The conditions noted are these: for IC50: DMR, acetylcholine 1 μM, 1 h pretreatment, time point 5 min. On the procedure: (§1) The present invention relates to the antagonistic activity of the compound against the muscarinic receptor, which is primarily assessed by a cell-level dynamic mass redistribution (DMR) assay method. All tests are carried out on Epic platform, wherein the target model of the muscarinic receptor M1 is the CHO-K1 ceil model stably transfecting the M1 receptor, the target model of M3 is the HT-29 cell model endogenously highly expressing the M3 receptor, and the selected probe molecule is acetylcholine. Tire probe molecule acetylcholine is dissolved in water, while all other compounds are dissolved in DMSO.
The inoculated cell plate is placed in a cell incubator for culture for 12 h until the cell growth and fusion degree reaches about 95%, and the activity assay is carried out. The culture medium is sucked from the cultured ceils, the buffer salt specified by the test is added with a volume of 30 μL per orifice and is stabilized for 1 h. After the baseline is stable, a 2-min baseline is established, and different concentrations of compounds to be tested are added to test the cultured cells for 1 h. After the cells are pretreated with the compounds to be tested for 1 h, the 2-min baseline is re-established, and acetylcholine having a concentration of 1 μM is added to test the cultured cells for 1 h.

The target in assay [2] is T2, M3 receptor (Homo sapiens, UniProt P20309).
T2 construct: HT-29 cell model endogenously highly expressing the M3 receptor; endogenous in cells; host or cells: HT-29
T2 sequence (P20309 whole entry): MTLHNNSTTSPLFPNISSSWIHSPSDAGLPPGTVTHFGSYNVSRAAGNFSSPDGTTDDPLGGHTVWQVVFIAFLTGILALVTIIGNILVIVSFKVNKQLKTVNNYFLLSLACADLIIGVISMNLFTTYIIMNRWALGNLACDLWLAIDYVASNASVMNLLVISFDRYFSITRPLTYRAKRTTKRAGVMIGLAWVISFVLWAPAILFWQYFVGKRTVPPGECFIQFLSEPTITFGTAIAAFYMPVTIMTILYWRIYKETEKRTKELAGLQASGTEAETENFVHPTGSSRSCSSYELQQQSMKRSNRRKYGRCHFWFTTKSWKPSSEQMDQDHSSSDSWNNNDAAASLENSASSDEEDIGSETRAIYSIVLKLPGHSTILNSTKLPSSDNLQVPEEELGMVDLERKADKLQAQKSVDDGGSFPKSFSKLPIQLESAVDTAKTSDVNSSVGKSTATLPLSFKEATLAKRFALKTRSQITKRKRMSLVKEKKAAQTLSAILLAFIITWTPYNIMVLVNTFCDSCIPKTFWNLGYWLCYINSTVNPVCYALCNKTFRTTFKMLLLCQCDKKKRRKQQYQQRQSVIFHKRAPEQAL
The assay can be described thus: DMR assay, antagonism of acetylcholine in HT-29 cells endogenously expressing the M3 receptor. Type of assay: cell-based. To be noted: for IC50: DMR, acetylcholine 16 μM, 1 h pretreatment, time point 30 min. On the procedure: as §1
The inoculated cell plate is placed in a cell incubator for culture for 20 h until the cell growth and fusion degree reaches about 95%, and the activity assay is carried out. The culture medium is sucked from the cultured cells, the buffer salt specified by the test is added with a volume of 30 μL per orifice and is stabilized for 1 h. After the baseline is stable, a 2-min baseline is established, and different concentrations of compounds to be tested are added to test the cultured cells for 1 h.

[3] abbreviates: structure-activity comparison with parent compound.

As to `CCc1ccc(O)c(C(CC2CCCCN2C)c2ccccc2)c1` (stereo not drawn), the “DMR response signal of the compound itself” value in assay [1] (CHO-K1-M1 cells, FIG. 1) is given as “almost zero”. In addition, the “antagonistic activity against the M1 receptor, in words” value in assay [1] (setting [3]) is reported as “the highest”.
Usually IC50 stands for the concentration needed to halve the response being measured. In the case of “2-[2-(2-hydroxy-5-fluorophenyl)-phenylethyl]-N,N-dimethylpiperidine bromide [I-10b]”, the half-inhibitory concentration (IC50) in assay [2] (HT-29 cells) amounted to 109 ± 39.4 nM.
As for “2-[2-(2-methyl p-toluenesulfonate group-5-methyl-phenyl)-phenethyl]-N,N-dimethylpiperidine Bromide [I-26]”, the IC50 in assay [2] (HT-29 cells) was 793 ± 69.7 nM.
Turning to `Cc1ccc(O)c(C(CC2CCCC[N+]2(C)CCCOc2ccccc2)c2ccccc2)c1.[Br-]` (racemic) [I-4a-PrOPh, 2-[2-(2-hydroxy-5-methyl-phenyl)-phenethyl]-N-methyl, N-phenoxypropyl Piperidine Bromide], the concentration for half-maximal inhibition (IC50) was determined as 295 ± 136 nM in assay [1] (CHO-K1-M1 cells) and 279 ± 128 nM in assay [2] (HT-29 cells). Besides, the “antagonistic activity against the M3 receptor, in words” value in assay [2] (setting [3]) is reported as “a significant decrease in activity”.
Take `CN1CCCCC1CC(c1ccccc1O)c1ccccc1O` (racemic) [II-3, 2-[2,2-bis(2-hydroxy-phenyl)-ethyl]-N-methylpiperidine]: the IC50 in assay [1] (CHO-K1-M1 cells) is 43.4 ± 10.6 nM; in assay [2] (HT-29 cells), 13.1 ± 1.9 nM.
As to `Cc1ccc(O)c(C(CC2CCCC[N+]2(C)C)c2ccccc2)c1` (single isomer, unassigned) [I-4b-Br, 2-[2-(2-hydroxy-5-methyl-phenyl)-phenethyl]-N,N-dimethylpiperidine Bromide], the IC50 in assay [1] (CHO-K1-M1 cells) came to 61 ± 21.8 nM; in assay [2] (HT-29 cells), 47.7 ± 11.9 nM.
On to `C[N+]1(C)CCCCC1CC(c1ccccc1)c1cc(F)ccc1O` (single isomer, unassigned) [I-10a, 2-[2-(2-hydroxy-5-fluorophenyl)-phenylethyl]-N,N-dimethylpiperidine bromide], for which, in assay [1] (CHO-K1-M1 cells), the IC50 was 13.2 ± 1.2 nM.
`C[N+]1(C)CCCCC1CC(c1ccccc1)c1cc(F)ccc1O` (single isomer, unassigned) [I-10a-2, 2-[2-(2-hydroxy-5-fluorophenyl)-phenylethyl]-N,N-dimethylpiperidine bromide]: the IC50 in assay [2] (HT-29 cells) is 82.9 ± 11.7 nM.
As to `C[N+]1(C)CCCCC1CC(c1ccccc1)c1cc(F)ccc1O` (single isomer, unassigned) [I-10b, 2-[2-(2-hydroxy-5-fluorophenyl)-phenylethyl]-N,N-dimethylpiperidine bromide], the 50% inhibitory concentration (IC50) in assay [1] (CHO-K1-M1 cells) came to 23.2 ± 12.1 nM; in assay [2] (HT-29 cells) it was 12.1 ± 5.3 nM.
On to `C[N+]1(C)CCCCC1CC(c1ccccc1)c1cc(F)ccc1O` (single isomer, unassigned) [I-10b-2, 2-[2-(2-hydroxy-5-fluorophenyl)-phenylethyl]-N,N-dimethylpiperidine bromide], for which the IC50 in assay [2] (HT-29 cells) came to 164 ± 12.6 nM.
With `CN1CCCCC1CC(c1ccccc1O)c1ccccc1O` (single isomer, unassigned) [II-3-1, 2-[2,2-bis(2-hydroxy-phenyl)-ethyl]-N-methylpiperidine], the IC50 worked out at 30.4 ± 12.6 nM in assay [1] (CHO-K1-M1 cells) and 15.4 ± 2.9 nM in assay [2] (HT-29 cells).
`CN1CCCCC1CC(c1ccccc1O)c1ccccc1O` (single isomer, unassigned) [II-3-2, 2-[2,2-bis(2-hydroxy-phenyl)-ethyl]-N-methylpiperidine]: the IC50 came out at 53.4 ± 16.2 nM in assay [1] (CHO-K1-M1 cells) and 67.3 ± 6.6 nM in assay [2] (HT-29 cells).
As to `CN1CCCCC1CC(c1ccccc1)c1cc(F)ccc1O` (single isomer, unassigned) [II-10a, 2-[2-(2-hydroxy-5-fluorophenyl)-phenethyl]-N-methylpiperidine], the figures for the half-inhibitory concentration (IC50) in assay [1] (CHO-K1-M1 cells) and in assay [2] (HT-29 cells) were 53.2 ± 12.5 nM and 49.3 nM, respectively.
`CN1CCCCC1CC(c1ccccc1)c1cc(F)ccc1O` (single isomer, unassigned) [II-10b, 2-[2-(2-hydroxy-5-fluorophenyl)-phenethyl]-N-methylpiperidine]: the results for the IC50 in assay [1] (CHO-K1-M1 cells) and in assay [2] (HT-29 cells) were 83.2 ± 22.8 nM and 109 ± 39.4 nM, respectively.
The matching figures for `C[N+]1(C)CCCCC1CC(c1ccccc1)c1ccccc1O` (stereo not drawn) [I-2a-2-Br, 2-[2-(2-hydroxy-phenyl)-phenethyl]-N,N-dimethylpiperidine Bromide]: 33.8 ± 8.6 nM and 28.4 ± 6.1 nM.
The matching figures for `C[N+]1(C)CCCCC1CC(c1ccccc1)c1ccccc1O` (stereo not drawn) [I-2a-I, 2-[2-(2-hydroxy-phenyl)-phenethyl]N,N-dimethylpiperidine Iodide]: 16.5 ± 1.8 nM and 25.6 ± 1.9 nM.
The matching figures for `CN1CCCCC1CC(c1ccccc1O)c1ccccc1O` (stereo not drawn) [I-3-Cl, 2-[2,2-bis(2-hydroxyphenyl)-ethyl]-N-methylpiperidine Hydrochloride]: 402 ± 185 nM and 66.2 ± 51.8 nM.
For `C[N+]1(C)CCCCC1CC(c1ccccc1O)c1ccccc1O` (stereo not drawn) [I-3-I, 2-[2,2-bis(2-hydroxyphenyl)ethyl]-N,N-dimethylpiperidine Iodide], the IC50 stood at 63.5 ± 15.1 nM in assay [1] (CHO-K1-M1 cells) and 6.9 ± 1.3 nM in assay [2] (HT-29 cells).
For `Cc1ccc(O)c(C(CC2CCCC[N+]2(C)C)c2ccccc2)c1` (stereo not drawn) [I-4B-2-Br, 2-[2-(2-hydroxy-5-methyl-phenyl)-phenethyl]-N,N-dimethylpiperidine Bromide] the same measures were 157 ± 61.6 nM and 217 ± 37.9 nM.
Regarding `Cc1ccc(O)c(C(CC2CCCC[N+]2(C)C)c2ccccc2)c1` (stereo not drawn) [I-4a-2-Br, 2-[2-(2-hydroxy-5-methyl-phenyl)-phenethyl]-N,N-dimethylpiperidine Bromide], the IC50 came to 832 ± 132 nM in assay [1] (CHO-K1-M1 cells) and 1210 ± 120 nM in assay [2] (HT-29 cells).
The matching figures for `Cc1ccc(O)c(C(CC2CCCC[N+]2(C)C)c2ccccc2)c1` (stereo not drawn) [I-4a-I, 2-[2-(2-hydroxy-5-methyl-phenyl)-phenethyl]-N,N-dimethylpiperidine Iodide]: 13.8 ± 1.5 nM and 9.3 ± 1 nM.
For `Cc1ccc(O)c(C(CC2CCCC[N+]2(C)C)c2ccccc2)c1` (stereo not drawn) [I-4b-1-Br, 2-[2-(2-hydroxy-5-methyl-phenyl)-phenethyl]-N,N-dimethylpiperidine Bromide] the same measures were 47.5 ± 13.5 nM and 27.1 ± 5.3 nM.
On to `CCc1ccc(O)c(C(CC2CCCC[N+]2(C)C)c2ccccc2)c1` (stereo not drawn) [I-5-Br, 2-[2-(2-hydroxy-5-ethyl-phenyl)-phenethyl]-N,N-dimethylpiperidine Bromide], for which the figures for the IC50 in assay [1] (CHO-K1-M1 cells) and in assay [2] (HT-29 cells) were 45.6 ± 7.8 nM and 10.5 ± 1.1 nM, respectively.
As for `CCc1ccc(O)c(C(CC2CCCC[N+]2(C)C)c2ccccc2)c1` (stereo not drawn) [I-5-I, 2-[2-(2-hydroxy-5-ethyl-phenyl)-phenethyl]-N,N-dimethylpiperidine Iodide], the half-inhibitory concentration (IC50) in assay [1] (CHO-K1-M1 cells) was determined as 20 ± 2.3 nM; in assay [2] (HT-29 cells), 18.8 ± 2.3 nM.
For `CCCc1ccc(O)c(C(CC2CCCC[N+]2(C)C)c2ccccc2)c1` (stereo not drawn) [I-6, 2-[2-(2-hydroxy-5-propyl-phenyl)-phenethyl]-N,N-dimethylpiperidine Bromide] the same measures were 133 ± 22.8 nM and 20.3 ± 3.6 nM.
The matching figures for `C[N+]1(C)CCCCC1CC(c1ccccc1)c1ccc(F)cc1O` (stereo not drawn) [I-8, 2-[2-(2-hydroxy-4-fluorophenyl)-phenethyl]-N,N-dimethylpiperidine bromide]: 113 ± 41.2 nM and 97.2 ± 21.1 nM.
For the compound `C[N+]1(C)CCCCC1CC(c1ccccc1)c1cc(F)ccc1O` (stereo not drawn) [I-10b-1, 2-[2-(2-hydroxy-5-fluorophenyl)-phenylethyl]-N,N-dimethylpiperidine bromide], the 50% inhibitory concentration (IC50) in assay [2] (HT-29 cells) is 35.2 ± 6.3 nM.
Consider `CN1CCCCC1CC(c1ccccc1)c1ccccc1O` (stereo not drawn) [II-2a, 2-[2-(2-hydroxy-phenyl)phenethyl]-N-methylpiperidine], for which the “DMR response signal of the compound itself” value in assay [2] (HT-29 cells, FIG. 2) was “almost zero”.
Turning to `CCCCCOc1ccc(O)c(C(CC2CCCCN2C)c2ccccc2)c1` (stereo not drawn) [II-12, 2-[2-(2-hydroxy-5-pentyloxy-phenyl)-phenethyl]-N-methylpiperidine], in assay [2] (HT-29 cells), the IC50 was 620 ± 49.4 nM.
Still for that read-out and setting: for `CN1CCCCC1CC(c1ccccc1)c1cc(C(F)(F)F)ccc1O` (stereo not drawn) [II-13, 2-[2-(2-hydroxy-5-trifluoromethyl-phenyl)-phenethyl]-N-methylpiperidine] the value was 249 ± 9.8 nM.
With `CCc1cccc(C(CC2CCCCN2C)c2cc(C(C)C)cc(C)c2O)c1` (stereo not drawn) [II-16, 2-[2-(2-hydroxy-3-methyl-5-isopropylphenyl)-2-(3-ethylphenyl)-ethyl]-N-methylpiperidine], in assay [2] (HT-29 cells), the IC50 stood at 371 ± 67.8 nM.
As for `Cc1ccc(O)c(C(CC2CCCCN2C)c2ccsc2)c1` (stereo not drawn) [II-22, 2-[2-(3-thienyl)-2-(2-hydroxy-5-methyl-phenyl)-ethyl]-N-methylpiperidine], the concentration for half-maximal inhibition (IC50) in assay [2] (HT-29 cells) came to 20.7 ± 3.6 nM.
